Source: paper PMC10161675, “Study on the absolute configuration and biological activity of rotenoids from the leaves and twigs of Millettia pyrrhocarpa Mattapha, Forest & Hawkins, sp. Nov” (BMC Complementary Medicine and Therapies, 2023)
Converted amounts (≈) assume the structure as drawn.

Experiments:
[1] = test system: E. coli O157: H7 DMST 12743; test: Antibacterial activity (MIC/MBC); type: cell-based; settings: Escherichia coli; for MBC: read-out: Concentration of MBC; for MIC: read-out: Concentration of MIC
Description: (§1) The study on in vitro antibacterial activity was carried out against nine strains (S. aureus ATCC 25923 DMST 8840, E. aerogenes ATCC13048 DMST 8841, E. coli O157: H7 DMST 12743, E. coli Enterotoxigenic, ETEC DMST 30543, E. coli Enteropathogenic, EPEC DMST 30546, S. typhimurium ATCC 13311 DMST 562, S. flexneri DMST 4423, P. mirabilis DMST 8212, and V. cholera nonO1/nonO139 DMST 2873).

[2] = test system: E. aerogenes ATCC13048 DMST 8841; test: microbe, parasite or virus in culture; type: cell-based; settings: Klebsiella aerogenes; for MBC: read-out: Concentration of MBC; for MIC: read-out: Concentration of MIC
Description: as §1

[3] = test system: E. coli Enteropathogenic, EPEC DMST 30546; test: microbe, parasite or virus in culture; type: cell-based; settings: Escherichia coli; for MBC: read-out: Concentration of MBC
Description: as §1

[4] = test system: E. coli Enterotoxigenic, ETEC DMST 30543; test: microbe, parasite or virus in culture; type: cell-based; settings: Escherichia coli; for MBC: read-out: Concentration of MBC
Description: as §1

[5] = test system: P. mirabilis DMST 8212; test: microbe, parasite or virus in culture; type: cell-based; settings: Proteus mirabilis; for MBC: DMST8212, read-out: Concentration of MBC; for MIC: DMST8212, read-out: Concentration of MIC
Description: as §1

[6] = test system: S. aureus ATCC 25923 DMST 8840; test: microbe, parasite or virus in culture; type: cell-based; settings: Staphylococcus aureus; for MBC: ATCC25923, read-out: Concentration of MBC; for MIC: ATCC25923, read-out: Concentration of MIC
Description: as §1

[7] = test system: S. flexneri DMST 4423; test: microbe, parasite or virus in culture; type: cell-based; settings: Shigella flexneri; for MBC: DMST4423, read-out: Concentration of MBC; for MIC: DMST4423, read-out: Concentration of MIC
Description: as §1

[8] = test system: S. typhimurium ATCC 13311 DMST 562; test: microbe, parasite or virus in culture; type: cell-based; settings: Salmonella enterica; for MBC: read-out: Concentration of MBC; for MIC: read-out: Concentration of MIC
Description: as §1

[9] = test system: V. cholera nonO1/nonO139 DMST 2873; test: Antibacterial activity (MIC/MBC); type: cell-based, V. cholerae; settings: Vibrio cholerae; for MBC: read-out: Concentration of MBC; for MIC: read-out: Concentration of MIC
Description: as §1

[10] = biological target: T1, HIV-1 RT (Human immunodeficiency virus type 1 group M subtype B, UniProt P04585); test: Anti-HIV1-RT assay; type: biochemical; settings: read-out: Anti-HIV-1 RT (% Inhibition)
T1 construct: For determination of IC50 in the HIV-1 RT assay
Description: (§2) Anti-HIV1-RT assays of the crude extracts and isolated compounds were evaluated according to the standard methods described in previous literature. Cell-based assays for anti-HIV-1 RT of the crude extracts and isolated compounds were evaluated according to the standard methods described in previous literature

[11] = test system: ΔTat/RevMC99 virus in 1A2 cells; test: Anti-syncytium (MC99 + 1A2) cell-based assay for anti-HIV-1; settings: Human immunodeficiency virus 1, 1A2, read-out: Anti-syncytium (MC99+1A2) EC50
Description: as §2
Fig. 4 Anti-syncytium MC99 + 1A2 of crude extracts and pure compounds from leaves and twigs of M. Pyrrhocarpa. ^bAnti-syncytium (MC99 + 1A2) EC50 = dose of compound that reduced 50% syncytium formation by ΔTat/RevMC99 virus in 1A2 cells.

[12] = test system: A 549 (Human lung adenocarcinoma); test: Cytotoxicity assay; type: cell-based; settings: A549
Source text: (§3) Cells line materials KKU-M213 (human cholangiocarcinoma) cells were kindly provided by Dr. Banchob Sripa from Liver Fluke and Cholangiocarcinoma Research Center, Department of Pathology, Faculty of Medicine, Khon Kean University. MMNK1 (human cholangiocyte) cells were obtained from the Japanese Collection of Research Bioresources Cell Bank (JCRB, Osaka, Japan). FaDu (human hypopharyngeal carcinoma), HT29 (human colorectal adenocarcinoma), MDA-MB-231 (human mammary gland/breast adenocarcinoma), SH-SY5Y (human neuroblastoma), A549 (human lung carcinoma), and HepG2 (human hepatocellular carcinoma) cell lines were obtained from the American Type Culture Collection (ATCC, Manassas, VA, USA).
(§4) Cytotoxicity assays of the crude extracts and isolated compounds were evaluated according to the standard methods described in previous literature.

[13] = test system: Hep G2 (Human hepatocellular carcinoma); test: Cytotoxicity assay; type: cell-based; settings: listed as 6aS, 12aS, 12S-elliptinol (1)
Source text: as §3, §4

SMILES: O=C(N[C@H](CO)[C@H](O)c1ccc([N+](=O)[O-])cc1)C(Cl)Cl [Chloramphenicol, reference compound]
- MBC [1]: 125 µg/mL (≈ 0.387 mM)
- MIC [1]: < 30 µg/mL
- MBC [2]: 125 µg/mL (≈ 0.387 mM)
- MIC [2]: < 30 µg/mL
- MIC ([3]; read-out: Concentration of MIC): < 30 µg/mL
- MIC ([4]; read-out: Concentration of MIC): < 30 µg/mL
- MBC [5]: 31.2 µg/mL (≈ 0.0966 mM)
- MIC [5]: < 30 µg/mL
- MBC [6]: 125 µg/mL (≈ 0.387 mM)
- MIC [6]: < 30 µg/mL
- MBC [7]: 125 µg/mL (≈ 0.387 mM)
- MIC [7]: < 30 µg/mL
- MBC [8]: 125 µg/mL (≈ 0.387 mM)
- MIC [8]: < 35 µg/mL
- MBC [9]: 125 µg/mL (≈ 0.387 mM)
- MIC [9]: < 30 µg/mL

SMILES: COc1cc2c(cc1OC)[C@H]1[C@H](O)c3ccc4occc4c3O[C@@H]1CO2 [Compound 1, 6aS, 12aS, 12S-elliptinol]
- MBC [1]: > 3000 µg/mL
- MIC [1]: 3000 µg/mL (≈ 8.47 mM)
- MBC [2]: > 3000 µg/mL
- MIC [2]: 3000 µg/mL (≈ 8.47 mM)
- MBC [3]: > 3000 µg/mL
- MBC [4]: > 3000 µg/mL
- MBC [5]: > 3000 µg/mL
- MIC [5]: 3000 µg/mL (≈ 8.47 mM)
- MBC [6]: > 3000 µg/mL
- MIC [6]: 3000 µg/mL (≈ 8.47 mM)
- MBC [7]: > 3000 µg/mL
- MIC [7]: 3000 µg/mL (≈ 8.47 mM)
- MBC [8]: > 3000 µg/mL
- MIC [8]: 3000 µg/mL (≈ 8.47 mM)
- MBC [9]: > 3000 µg/mL
- MIC [9]: 3000 µg/mL (≈ 8.47 mM)
- inhibition at 200 µg/mL [10]: 0.03%
- EC50 [11]: 4.48 µM
- cytotoxicity ED50 [12]: 2.27 µg/mL
- cytotoxicity ED50 [13]: 3.97 µg/mL

SMILES: COc1ccc2c(c1)O[C@@H]1COc3cc(OC)c(OC)cc3[C@H]1[C@@H]2O [Compound 2, 6aS, 12aS, 12S-munduserol]
- MBC [1]: > 3000 µg/mL
- MIC [1]: 3000 µg/mL (≈ 8.71 mM)
- MBC [2]: > 3000 µg/mL
- MIC [2]: 3000 µg/mL (≈ 8.71 mM)
- MBC [3]: > 3000 µg/mL
- MBC [4]: > 3000 µg/mL
- MBC [5]: > 3000 µg/mL
- MIC [5]: 3000 µg/mL (≈ 8.71 mM)
- MBC [6]: > 3000 µg/mL
- MIC [6]: 3000 µg/mL (≈ 8.71 mM)
- MBC [7]: > 3000 µg/mL
- MIC [7]: 3000 µg/mL (≈ 8.71 mM)
- MBC [8]: > 3000 µg/mL
- MIC [8]: 3000 µg/mL (≈ 8.71 mM)
- MBC [9]: > 3000 µg/mL
- MIC [9]: 3000 µg/mL (≈ 8.71 mM)
- inhibition at 200 µg/mL [10]: 8.98%
- EC50 [11]: 4.99 µM
- melting point: 240 to 241 °C

SMILES: COc1ccc2c(=O)c3c(oc2c1)COc1cc(OC)c(OC)cc1-3 [Compound 3, dehydromunduserone]
- MBC [1]: > 3000 µg/mL
- MIC [1]: 3000 µg/mL (≈ 8.81 mM)
- MBC [2]: > 3000 µg/mL
- MIC [2]: 3000 µg/mL (≈ 8.81 mM)
- MBC [3]: > 3000 µg/mL
- MBC [4]: > 3000 µg/mL
- MBC [5]: > 3000 µg/mL
- MIC [5]: 3000 µg/mL (≈ 8.81 mM)
- MBC [6]: > 3000 µg/mL
- MIC [6]: 3000 µg/mL (≈ 8.81 mM)
- MBC [7]: > 3000 µg/mL
- MIC [7]: 3000 µg/mL (≈ 8.81 mM)
- MBC [8]: > 3000 µg/mL
- MIC [8]: 3000 µg/mL (≈ 8.81 mM)
- MBC [9]: > 3000 µg/mL
- MIC [9]: 3000 µg/mL (≈ 8.81 mM)
- inhibition at 200 µg/mL [10]: 0%
- EC50 [11]: 91 µM
- melting point: 202 to 204 °C
